As usually defined, the inhibition is the relative decrease from the control value, in per cent. Broadly, the IC50 is the point on the concentration scale where inhibition reaches its midpoint. Lower therefore signals higher potency.

Structures are written as SMILES.

The values that follow come from ChEMBL document CHEMBL1129111, “Neuroprotective (+) 3S, 4S cannabinoids with modified 5-side chain” (Bioorg Med Chem Lett, 1996).

Assay [1] is filed under the species Rattus norvegicus. In words: Compound was tested for neuronal cell toxicity in cortical neuron cell cultures extracted from fetal rat brains at concentration of 10 uM. The assay is classed as functional, Brain.
The species entered for assay [2] is Rattus norvegicus. The assay can be described thus: Compound was tested for neuronal cell toxicity in cortical neuron cell cultures extracted from fetal rat brains at concentration of 20 uM. The assay is classed as functional, Brain.
The target of assay [3] is Glutamate NMDA receptor (Rattus norvegicus) (UniProt P35439+Q00959+Q00960+Q00961+Q62645+Q8VHN2+Q9R1M7). In words: Compound was tested for its ability to inhibit [3H]- MK-801 binding to NMDA receptor in rat forebrain membranes at concentration of 100 uM. It is filed as cell membranes. Conditions: Membrane.
Assay [4] is filed under the species Rattus norvegicus. In words: Compound was tested for the protection of neurons against NMDA toxicity at concentration of 10 uM. The assay is classed as functional.
For the next assay, the target named is Glutamate NMDA receptor. The assay can be described thus: Compound was tested for its ability to displace [3H]- MK-801 binding to NMDA receptor in rat forebrain membranes. It is filed as cell membranes.

For the compound `CC(C)(C)c1cc(O)c2c(c1)OC(C)(C)C1CC=C(CO)C[C@H]21` (some centres undefined), the Morbidity is recorded as 15% in the assay filed under Rattus norvegicus [1] and 36% in the assay listed under Rattus norvegicus [2]. In addition, the inhibition in assay [3] was 83%. Besides, in the assay filed under Rattus norvegicus [4], the Protection came to 24%. The IC50 at Glutamate NMDA receptor was determined as 30 µM.

The compound `CCCCCCC(C)(C)c1cc(O)c2c(c1)OC(C)(C)C1CC=C(CO)C[C@H]21` (some centres undefined) yielded a Morbidity in the assay filed under Rattus norvegicus [1] of 25%. For the same compound, in assay [3], the inhibition is 90%. The compound also gave a Protection in the assay listed under Rattus norvegicus [4] of 63%. Further, the IC50 on Glutamate NMDA receptor amounted to 10 µM.

With `CCCC(C)(C)c1cc(O)c2c(c1)OC(C)(C)C1CC=C(CO)C[C@H]21` (some centres undefined), the Morbidity in the assay listed under Rattus norvegicus [1] and in the assay filed under Rattus norvegicus [2] was 0% throughout. Further, the inhibition in assay [3] amounted to 80%. The compound also displayed a Protection in the assay filed under Rattus norvegicus [4] of 36%. The compound also returned a half-inhibitory concentration (IC50) on Glutamate NMDA receptor of 30 µM.
